# Legend:
# [1] = biological target: SMARCA4 (Homo sapiens (Human), UniProt P51532); assay: SMARCA4 HiBiT degradation assay in HeLa cells; format: cell-based; conditions: 18 hours; for DC50: read-out: DC50 (SM4-HeLa) SMARCA4 degradation potency; for Dmax: HeLa, read-out: Dmax % (SM4-HeLa) maximum SMARCA4 degradation within the concentrations tested
# Procedure: (§1) HiBiT peptide knock-in of SMARCA2 in LgBiT expressing HEK293T cells was performed by CRISPR-mediated tagging system as described Promega. The homozygous HiBiT knock-in on c-terminus SMARCA2 was confirmed by sanger sequence. SMARCA2-HiBiT knock-in Hela monoclonal cell (CS302366) and SMARCA4-HiBiT knock-in Hela monoclonal cell (CS3023226) were purchased from Promega. The heterozygous HiBiT-knock-in was confirmed by sanger sequence in both SMARCA2-HiBiT and SMARCA4-HiBiT monoclonal cells.
# (§2) Dispense 10 μL aliquot of prepared Hela-SMARCA2-HiBiT or Hela-SMARCA4-HiBiT cells (1:1 ratio of cells:Trypan Blue (#1450013, Bio-Rad)) onto cell counting slide (#145-0011, Bio-Rad) and obtain cell density and cell viability using cell counter (TC20, Bio-Rad). Remove appropriate volume of resuspended cells from culture flask to accommodate 2500 cells/well @ 20 μL/well. Transfer Hela-HiBiT cells to 50 ml conical (#430290, Corning). Spin down at 1000 rpm for 5 min using tabletop centrifuge (SPINCHRON 15, Beckman). Discard supernatant and resuspend cell pellet in modified EMEM (#30-2003, ATCC) cell culture media containing 10% FBS (F2422-500ML, Sigma), and 1×Penicillin/Streptomycin (200 g/1) (30-002-CI, Corning) to a cell density of 125,000 cells/ml. Dispense 20 μL of resuspended Hela-HiBit cells per well in 384-well TC treated plate (#12-565-343, Thermo Scientific) using standard cassette (#50950372, Thermo Scientific) on Multidrop Combi (#5840310, Thermo Scientific) inside laminar flow cabinet. Dispense test compounds onto plates using digital liquid dispenser (D300E, Tecan). Incubate plates in humidified tissue culture incubator @37° C. for 18 hours. Add 20 ul of prepared Nano-Glo® HiBiT Lytic detection buffer (N3050, Promega) to each well of 384-well plate using small tube cassette (#24073295, Thermo Scientific) on Multidrop Combi, incubate @ RT for 30-60 min. Read plates on microplate reader (Envision 2105, PerkinElmer) using 384 well Ultra-Sensitive luminescence mode. Raw data files and compound information reports are swept into centralized data lake and deconvoluted using automated scripts designed by TetraScience, Inc. Data analysis, curve-fitting and reporting done in Dotmatics Informatics Suite using Screening Ultra module.
# [2] = biological target: SMARCA2 (Homo sapiens (Human), UniProt P51531); assay: SMARCA2 HiBiT degradation assay in HeLa cells; format: cell-based; conditions: 18 hours; for DC50: read-out: DC50 (SM2-HeLa) SMARCA2 degradation potency; for Dmax: read-out: Dmax % (SM2-HeLa) maximum SMARCA2 degradation within the concentrations tested
# Sequence of SMARCA2 (P51531 whole entry): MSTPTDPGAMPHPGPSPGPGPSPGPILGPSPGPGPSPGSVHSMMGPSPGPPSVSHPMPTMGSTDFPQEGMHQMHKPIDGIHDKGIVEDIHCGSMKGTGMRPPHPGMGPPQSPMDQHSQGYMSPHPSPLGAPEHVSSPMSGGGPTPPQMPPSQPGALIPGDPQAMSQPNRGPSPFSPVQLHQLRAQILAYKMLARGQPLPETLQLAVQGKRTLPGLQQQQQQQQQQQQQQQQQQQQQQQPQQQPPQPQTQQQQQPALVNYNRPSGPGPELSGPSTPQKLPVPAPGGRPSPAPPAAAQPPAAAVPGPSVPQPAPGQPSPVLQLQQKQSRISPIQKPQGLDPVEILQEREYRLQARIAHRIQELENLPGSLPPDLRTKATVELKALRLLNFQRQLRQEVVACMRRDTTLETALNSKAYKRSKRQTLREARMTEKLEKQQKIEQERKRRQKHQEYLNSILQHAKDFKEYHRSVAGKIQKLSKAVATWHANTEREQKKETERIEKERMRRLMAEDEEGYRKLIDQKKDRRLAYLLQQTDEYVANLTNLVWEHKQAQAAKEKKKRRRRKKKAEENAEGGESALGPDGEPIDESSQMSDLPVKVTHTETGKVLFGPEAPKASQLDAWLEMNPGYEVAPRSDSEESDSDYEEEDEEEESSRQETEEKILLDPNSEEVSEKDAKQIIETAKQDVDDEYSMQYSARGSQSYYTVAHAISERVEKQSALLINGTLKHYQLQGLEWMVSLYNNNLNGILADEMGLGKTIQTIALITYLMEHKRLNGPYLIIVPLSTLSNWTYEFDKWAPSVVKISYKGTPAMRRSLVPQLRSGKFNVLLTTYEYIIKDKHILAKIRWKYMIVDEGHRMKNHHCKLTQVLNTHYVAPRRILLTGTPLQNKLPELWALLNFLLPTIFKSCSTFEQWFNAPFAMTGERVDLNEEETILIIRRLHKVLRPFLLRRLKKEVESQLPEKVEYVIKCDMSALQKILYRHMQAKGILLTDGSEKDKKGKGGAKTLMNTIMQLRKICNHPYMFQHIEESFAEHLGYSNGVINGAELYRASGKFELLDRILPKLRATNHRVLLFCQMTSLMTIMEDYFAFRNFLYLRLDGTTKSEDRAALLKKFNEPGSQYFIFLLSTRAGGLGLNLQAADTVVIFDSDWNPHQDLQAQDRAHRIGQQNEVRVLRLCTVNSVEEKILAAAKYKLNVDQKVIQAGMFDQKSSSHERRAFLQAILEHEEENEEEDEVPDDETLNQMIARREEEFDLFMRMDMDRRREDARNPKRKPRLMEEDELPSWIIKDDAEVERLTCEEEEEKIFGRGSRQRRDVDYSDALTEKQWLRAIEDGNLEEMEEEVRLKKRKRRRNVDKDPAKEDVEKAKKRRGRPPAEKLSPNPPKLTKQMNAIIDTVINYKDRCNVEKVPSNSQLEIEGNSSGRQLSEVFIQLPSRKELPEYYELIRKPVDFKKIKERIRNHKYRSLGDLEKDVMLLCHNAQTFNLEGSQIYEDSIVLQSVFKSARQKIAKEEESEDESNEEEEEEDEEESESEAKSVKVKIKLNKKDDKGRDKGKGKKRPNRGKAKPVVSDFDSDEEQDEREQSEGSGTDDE
# Procedure: as §1, §2
# Sequence of SMARCA4 (P51532 whole entry): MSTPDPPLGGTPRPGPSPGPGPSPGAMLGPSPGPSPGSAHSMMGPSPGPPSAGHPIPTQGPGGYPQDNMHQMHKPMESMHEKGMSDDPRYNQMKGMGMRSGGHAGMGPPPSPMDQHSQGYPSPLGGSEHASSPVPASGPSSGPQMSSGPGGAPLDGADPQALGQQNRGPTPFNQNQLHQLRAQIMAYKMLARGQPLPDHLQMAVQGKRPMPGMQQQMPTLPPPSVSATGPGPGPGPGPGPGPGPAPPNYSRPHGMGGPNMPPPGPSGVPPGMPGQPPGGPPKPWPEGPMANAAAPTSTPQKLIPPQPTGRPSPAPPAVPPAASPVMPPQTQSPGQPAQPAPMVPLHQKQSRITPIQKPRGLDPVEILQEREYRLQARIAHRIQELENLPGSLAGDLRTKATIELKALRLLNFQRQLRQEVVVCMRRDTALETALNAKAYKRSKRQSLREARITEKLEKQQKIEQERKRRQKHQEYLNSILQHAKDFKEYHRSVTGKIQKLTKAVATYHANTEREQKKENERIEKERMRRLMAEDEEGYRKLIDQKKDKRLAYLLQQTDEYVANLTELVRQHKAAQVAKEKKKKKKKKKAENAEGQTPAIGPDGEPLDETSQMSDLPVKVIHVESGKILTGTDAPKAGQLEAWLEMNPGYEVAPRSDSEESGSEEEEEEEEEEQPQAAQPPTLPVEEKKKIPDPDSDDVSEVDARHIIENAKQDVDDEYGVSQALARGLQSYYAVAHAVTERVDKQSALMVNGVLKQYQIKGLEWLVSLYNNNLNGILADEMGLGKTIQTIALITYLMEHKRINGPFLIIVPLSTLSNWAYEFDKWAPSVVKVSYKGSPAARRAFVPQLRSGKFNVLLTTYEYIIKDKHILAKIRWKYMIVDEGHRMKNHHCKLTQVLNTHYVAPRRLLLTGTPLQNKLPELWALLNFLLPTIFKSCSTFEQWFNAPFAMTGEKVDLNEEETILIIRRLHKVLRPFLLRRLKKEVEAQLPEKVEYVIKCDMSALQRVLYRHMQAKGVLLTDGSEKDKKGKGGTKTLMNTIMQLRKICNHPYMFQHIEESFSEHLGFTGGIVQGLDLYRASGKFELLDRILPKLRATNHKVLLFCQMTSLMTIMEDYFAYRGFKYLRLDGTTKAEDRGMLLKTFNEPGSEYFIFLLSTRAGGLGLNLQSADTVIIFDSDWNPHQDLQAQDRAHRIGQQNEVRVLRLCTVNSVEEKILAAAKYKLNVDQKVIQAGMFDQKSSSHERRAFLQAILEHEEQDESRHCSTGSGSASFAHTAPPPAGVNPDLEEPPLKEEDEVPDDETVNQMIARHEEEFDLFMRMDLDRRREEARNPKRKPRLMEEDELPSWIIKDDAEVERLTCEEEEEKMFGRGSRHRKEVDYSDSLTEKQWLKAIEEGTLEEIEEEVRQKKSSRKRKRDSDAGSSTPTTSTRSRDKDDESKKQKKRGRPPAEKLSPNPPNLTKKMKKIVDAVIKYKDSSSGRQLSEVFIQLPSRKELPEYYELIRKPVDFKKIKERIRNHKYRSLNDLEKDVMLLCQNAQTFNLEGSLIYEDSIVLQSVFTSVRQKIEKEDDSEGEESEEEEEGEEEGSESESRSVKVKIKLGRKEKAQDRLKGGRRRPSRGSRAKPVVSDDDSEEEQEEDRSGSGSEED
Compound,DC50 [1] [nM],Dmax [1] [%],DC50 [2] [nM],Dmax [2] [%],Dmax % (SM4-HeLa) maximum SMARCA4 degradation within the concentrations tested [1],Dmax % (SM2-HeLa) maximum SMARCA2 degradation within the concentrations tested [2]
"Cc1ncsc1-c1ccc([C@H](C)NC(=O)[C@@H]2C[C@@H](O)CN2C(=O)[C@@H](c2cc(OCCN(C)C3CCC(N4CCN5c6cc(-c7ccccc7O)nnc6NC[C@H]5C4)CC3)no2)C(C)C)cc1 (stereo partly drawn) [Example 43, (2S,4R)-4-hydroxy-1-((R)-2-(3-(2-((4-((S)-2-(2-hydroxyphenyl)-5,6,6a,7,9,10-hexahydro-8H-pyrazino[1′,2′:4,5]pyrazino[2,3-c]pyridazin-8-yl)cyclohexyl)(methyl)amino)ethoxy)isoxazol-5-yl)-3-methylbutanoyl)-N-((S)-1-(4-(4-methylthiazol-5-yl)phenyl)ethyl)pyrrolidine-2-carboxamide]",< 100,> 75,< 100,> 75,–,–
"Cc1ncsc1-c1ccc([C@H](C)NC(=O)[C@@H]2C[C@@H](O)CN2C(=O)[C@@H](c2cc(CCCN3CCCC(N4CCN5c6cc(-c7ccccc7O)nnc6NC[C@H]5C4)C3)no2)C(C)C)cc1 (stereo partly drawn) [Example 45, (2S,4R)-4-hydroxy-1-((2R)-2-(3-(3-(3-((S)-2-(2-hydroxyphenyl)-5,6,6a,7,9,10-hexahydro-8H-pyrazino[1′,2′:4,5]pyrazino[2,3-c]pyridazin-8-yl)piperidin-1-yl)propyl)isoxazol-5-yl)-3-methylbutanoyl)-N-((S)-1-(4-(4-methylthiazol-5-yl)phenyl)ethyl)pyrrolidine-2-carboxamide]",< 100,50 to 75,< 100,> 75,–,–
"Cc1ncsc1-c1ccc([C@H](CO)NC(=O)[C@@H]2C[C@@H](O)CN2C(=O)C(c2cc(OCCN3CCC(CN4CCN5c6cc(-c7ccccc7O)nnc6NC[C@H]5C4)CC3)no2)C(C)C)cc1 (stereo partly drawn) [Example 46, (2S,4R)-4-hydroxy-N-((R)-2-hydroxy-1-(4-(4-methylthiazol-5-yl)phenyl)ethyl)-1-(2-(3-(2-(4-(((S)-2-(2-hydroxyphenyl)-5,6,6a,7,9,10-hexahydro-8H-pyrazino[1′,2′:4,5]pyrazino[2,3-c]pyridazin-8-yl)methyl)piperidin-1-yl)ethoxy)isoxazol-5-yl)-3-methylbutanoyl)pyrrolidine-2-carboxamide]",100 to 1000,> 75,< 100,> 75,–,–
"Cc1ncsc1-c1ccc([C@H](C)NC(=O)[C@@H]2C[C@@H](O)CN2C(=O)[C@@H](c2cc(OCCN3CC4CC(N5CCN6c7cc(-c8ccccc8O)nnc7NC[C@H]6C5)CC4C3)no2)C(C)C)cc1 (stereo partly drawn) [Example 47, (2S,4R)-4-hydroxy-1-((2R)-2-(3-(2-(5-((S)-2-(2-hydroxyphenyl)-5,6,6a,7,9,10-hexahydro-8H-pyrazino[1′,2′:4,5]pyrazino[2,3-c]pyridazin-8-yl)hexahydrocyclopenta[c]pyrrol-2(1H)-yl)ethoxy)isoxazol-5-yl)-3-methylbutanoyl)-N-((S)-1-(4-(4-methylthiazol-5-yl)phenyl)ethyl)pyrrolidine-2-carboxamide]",< 100,> 75,< 100,> 75,–,–
"Cc1ncsc1-c1ccc([C@H](C)NC(=O)[C@@H]2C[C@@H](O)CN2C(=O)[C@@H](c2cc(O[C@@H](C)CN3CCC(N4CCN5c6cc(-c7ccccc7O)nnc6NC[C@H]5C4)C3)no2)C(C)C)cc1 (stereo partly drawn) [Example 48, (2S,4R)-4-hydroxy-1-((2R)-2-(3-(((2S)-1-(3-((S)-2-(2-hydroxyphenyl)-5,6,6a,7,9,10-hexahydro-8H-pyrazino[1′,2′:4,5]pyrazino[2,3-c]pyridazin-8-yl)pyrrolidin-1-yl)propan-2-yl)oxy)isoxazol-5-yl)-3-methylbutanoyl)N-((S)-1-(4-(4-methylthiazol-5-yl)phenyl)ethyl)pyrrolidine-2-carboxamide]",< 100,–,< 100,> 75,B (B = 50%< Dmax <=75%),–
"Cc1ncsc1-c1ccc([C@H](C)NC(=O)[C@@H]2C[C@@H](O)CN2C(=O)[C@@H](c2cc(O[C@@H](C)CN3CCC(N4CCN5c6cc(-c7ccccc7O)nnc6NC[C@H]5C4)C3)no2)C(C)C)cc1 (stereo partly drawn) [Example 49, (2S,4R)-4-hydroxy-1-((2R)-2-(3-(((2S)-1-(3-((S)-2-(2-hydroxyphenyl)-5,6,6a,7,9,10-hexahydro-8H-pyrazino[1′,2′:4,5]pyrazino[2,3-c]pyridazin-8-yl)pyrrolidin-1-yl)propan-2-yl)oxy)isoxazol-5-yl)-3-methylbutanoyl)-N-((S)-1-(4-(4-methylthiazol-5-yl)phenyl)ethyl)pyrrolidine-2-carboxamide]",< 100,–,< 100,–,A/A (A = Dmax >75%),A/A (A = Dmax >75%)
"Cc1ncsc1-c1ccc([C@H](C)NC(=O)[C@@H]2C[C@@H](O)CN2C(=O)[C@@H](c2cc(OCCN3CCC(N4CCN5c6cc(-c7ccccc7O)nnc6NC[C@H]5C4)CC3C)no2)C(C)C)cc1 (stereo partly drawn) [Example 54, (2S,4R)-4-hydroxy-1-((2R)-2-(3-(2-(4-((S)-2-(2-hydroxyphenyl)-5,6,6a,7,9,10-hexahydro-8H-pyrazino[1′,2′:4,5]pyrazino[2,3-c]pyridazin-8-yl)-2-methylpiperidin-1-yl)ethoxy)isoxazol-5-yl)-3-methylbutanoyl)-N-((S)-1-(4-(4-methylthiazol-5-yl)phenyl)ethyl)pyrrolidine-2-carboxamide]",< 100,> 75,< 100,> 75,–,–
"Cc1ncsc1-c1ccc([C@H](C)NC(=O)[C@@H]2C[C@@H](O)CN2C(=O)[C@@H](c2cc(OC(C)CN3CCC(N4CCN5c6cc(-c7ccccc7O)nnc6NC[C@H]5C4)CC3)no2)C(C)C)cc1 (stereo partly drawn) [Example 57, (2S,4R)-4-hydroxy-1-((2R)-2-(3-((1-(4-((S)-2-(2-hydroxyphenyl)-5,6,6a,7,9,10-hexahydro-8H-pyrazino[1′,2′:4,5]pyrazino[2,3-c]pyridazin-8-yl)piperidin-1-yl)propan-2-yl)oxy)isoxazol-5-yl)-3-methylbutanoyl)-N-((S)-1-(4-(4-methylthiazol-5-yl)phenyl)ethyl)pyrrolidine-2-carboxamide]",100 to 1000,50 to 75,< 100,> 75,–,–
"CCC(CN1CCC(N2CCN3c4cc(-c5ccccc5O)nnc4NC[C@H]3C2)CC1)Oc1cc([C@H](C(=O)N2C[C@H](O)C[C@H]2C(=O)N[C@@H](C)c2ccc(-c3scnc3C)cc2)C(C)C)on1 (stereo partly drawn) [Example 60, (2S,4R)-4-hydroxy-1-(2-(3-((1-(4-((S)-2-(2-hydroxyphenyl)-5,6,6a,7,9,10-hexahydro-8H-pyrazino[1′,2′:4,5]pyrazino[2,3-c]pyridazin-8-yl)piperidin-1-yl)butan-2-yl)oxy)isoxazol-5-yl)-3-methylbutanoyl)-N-((S)-1-(4-(4-methylthiazol-5-yl)phenyl)ethyl)pyrrolidine-2-carboxamide]",< 100,50 to 75,< 100,> 75,–,–
